{
  "source": "patent US12661335B2",
  "about": "“Halogenated xanthene-containing topical anti-gram-positive bacterial ophthalmic composition and method” (Provectus Pharmatech, Inc., priority 2021, dated 2026)",
  "key": {"A. fumigattus": {"test_system": "A. fumigattus", "details": "three days of incubation, cited from earlier work"}, "Mycobacterial spp.": {"test_system": "Mycobacterial spp.", "test": "Killing concentrations for five Mycobacterial spp.", "type": "cell-based, Mycobacterium spp.", "experimental": "Antibacterial activity of RB against 5 Mycobacterium spp. Was examined (entries 25-29). […] RB inhibited growth of Saccharomyces cerevisiae at higher concentrations than the bacteria under the dark condition (entry 30).\nRB kills Mycobacterial spp. At 12.5-25.0 mg/mL in illumination conditions, and at 25.0-50.0 mg/mL in dark conditions (Table 1). In both conditions, RB kills five Mycobacterial spp. At a slower rate than that of Gram-positive bacteria. RB seems to have low-permeability of mycobacterial cell walls. Due to rapid bactericidal effect of RB against Gram-positive bacteria even in the dark condition, generation of RB-resistant mutants of Gram-positive bacteria is an extremely difficult task."}, "[1]": {"test_system": "biofilms of E. faecium NR-32065", "test": "Biofilm eradication assay", "type": "cell-based, Enterococcus faecium", "details": "fluorescent and dark conditions; concentration-dependent", "text": "Linezolid is not an effective drug in eradicating biofilms of Gram-positive bacteria, but has a beneficial effect in prevention of biofilm formations [Reiter et al., J. Med. Microbiol. 62:394-399 (2013)], and was used as a control.\nWe confirm that RB is an excellent agent to eradicate biofilms of Gram-positive bacteria, including drug-resistant strains. […] These studies indicate that RB has the potential antibacterial agent to kill drug-resistant bacteria in any growth phases."}, "[2]": {"test_system": "Staphylococcus aureus subsp. Aureus 33592 ™ (a methicillin and gentamicin resistant strain)", "test": "MIC, broth dilution method, dark condition", "type": "cell-based", "details": "Table 1 entry 11, 24 h"}, "[3]": {"test_system": "progressive infectious keratitis", "details": "cited from earlier work"}, "[4]": {"test_system": "Mycobacteroides abscessus 19977 ™", "test": "MIC, broth dilution method, dark condition", "type": "cell-based", "details": "Table 1 entry 29, 24 h"}, "[5]": {"test_system": "Staphylococcus aureus 6538 ™", "test": "MIC, broth dilution method, dark condition", "type": "cell-based", "details": "Table 1 entry 4, 24 h"}, "[6]": {"test_system": "Staphylococcus aureus subsp. Aureus BAA-44 ™ (a MRSA strain)", "test": "MIC, broth dilution method, dark condition", "type": "cell-based", "details": "Table 1 entry 8, 24 h"}, "[7]": {"test_system": "biofilms of S. aureus 6508™", "test": "Biofilm eradication assay", "type": "cell-based, Staphylococcus aureus", "details": "for viable bacteria in biofilm: dark condition", "experimental": "62:394-399 (2013)], and was used as a control.\nLinezolid was applied as a positive control at very high concentration of 600 μg/mL (>100×MIC for the planktonic cells) in biofilm assays reported by Kurosu et al., Molecules 27:322 (2022)."}, "[8]": {"test_system": "Staphylococcus aureus AIS2006032 (a vancomycin-resistant strain)", "test": "MIC, broth dilution method, dark condition", "type": "cell-based", "details": "Table 1 entry 12, 24 h"}, "F. solani": {"test_system": "F. solani", "details": "three days of incubation, cited from earlier work"}, "[9]": {"test_system": "Staphylococcus aureus subsp. Aureus BAA-2094 ™ (a MRSA strain)", "test": "MIC, broth dilution method, dark condition", "type": "cell-based", "details": "Table 1 entry 9, 24 h"}, "[10]": {"test_system": "vancomycin-resistant S. aureus strains", "details": "under either lighting condition (fluorescent or LED); entries 12-16"}, "[11]": {"test_system": "Staphylococcus aureus subsp. Aureus BAA-1683 (a MRSA strain)", "test": "MIC, broth dilution method, dark condition", "type": "cell-based", "details": "Table 1 entry 5, 24 h"}, "[12]": {"test_system": "Streptococcus pneumoniae 6301 ™", "test": "MIC, broth dilution method, dark condition", "type": "cell-based"}, "[13]": {"test_system": "Enterococcus faecium UAA714 (a vancomycin-resistant strain)", "test": "MIC, broth dilution method, dark condition", "type": "cell-based", "details": "Table 1 entry 22, 24 h"}, "[14]": {"test_system": "Bacillus subtilis ATCC6051", "test": "MIC, broth dilution method, dark condition", "type": "cell-based", "details": "Table 1 entry 1, 24 h"}, "[15]": {"test_system": "Bacillus cereus NRRL B-569", "test": "MIC, broth dilution method, dark condition", "type": "cell-based", "details": "NRRLB569, Table 1 entry 2, 24 h"}, "[16]": {"test_system": "Streptococcus salivarius subsp. Salivarius 7073 ™", "test": "MIC, broth dilution method, dark condition", "type": "cell-based"}, "[17]": {"test_system": "Enterococcus faecalis 19433 ™", "test": "MIC, broth dilution method, dark condition", "type": "cell-based", "details": "Table 1 entry 17, 24 h"}, "[18]": {"details": "concentrations below 2.0%; cited from earlier work"}, "[19]": {"test_system": "Staphylococcus aureus subsp. Aureus BAA-42 ™ (a MRSA strain)", "test": "MIC, broth dilution method, dark condition", "type": "cell-based", "details": "Table 1 entry 7, 24 h"}, "[20]": {"test_system": "Staphylococcus aureus BR 5 (A methicillin and vancomycin resistant strain)", "test": "MIC, broth dilution method, dark condition", "type": "cell-based", "details": "Table 1 entry 13, 24 h"}, "[21]": {"test_system": "Staphylococcus epidermidis 35984 ™", "test": "MIC, broth dilution method, dark condition", "type": "cell-based"}, "[22]": {"test_system": "Staphylococcus aureus subsp. Aureus BAA-41 ™ (a MRSA strain)", "test": "MIC, broth dilution method, dark condition", "type": "cell-based", "details": "Table 1 entry 6, 24 h"}, "[23]": {"test_system": "Enterococcus faecium BAA-2320", "test": "MIC, broth dilution method, dark condition", "type": "cell-based", "details": "BAA2320, Table 1 entry 19, 24 h"}, "[24]": {"test_system": "Saccharomyces cerevisiae BY4743", "test": "MIC, broth dilution method, dark condition", "type": "cell-based", "details": "Table 1 entry 30, 24 h"}, "[25]": {"test_system": "Mycobacterium smagmatis 607 ™", "test": "MIC, broth dilution method, dark condition", "type": "cell-based, Mycobacterium smegmatis"}},
  "note": "Where two headings read alike, the source gives them in different places.",
  "data": [
    {"smiles": "O=C(O)c1c(Cl)c(Cl)c(Cl)c(Cl)c1-c1c2cc(I)c(=O)c(I)c-2oc2c(I)c(O)c(I)cc12", "note": "[RB, 4,5,6,7-tetrachloro-2′,4′,5′,7′-tetraiodofluorescein]", "values": [
      {"measurement": "Day 3 Growth Inhibition Percentage, RB + 518 nm Irradiation", "setting": "A. fumigattus; 518 nm, 5.4 J/cm^2", "result": "79.8 ± 9", "unit": "Percentage"},
      {"measurement": "Day 3 Growth Inhibition Percentage, RB Only", "setting": "A. fumigattus; dark, no irradiation", "result": "6.6 ± 0.", "unit": "Percentage"},
      {"measurement": "concentration at which RB kills Mycobacterial spp.", "setting": "Mycobacterial spp.; dark conditions", "result": "25.0 to 50.0", "unit": "mg/mL"},
      {"measurement": "concentration at which RB kills Mycobacterial spp.", "setting": "Mycobacterial spp.; illumination conditions", "result": "12.5 to 25.0", "unit": "mg/mL"},
      {"measurement": "viable cells in biofilm", "setting": "[1]", "result": "significantly reduced"},
      {"measurement": "MIC", "setting": "[2]", "result": 50, "unit": "µg/mL"},
      {"measurement": "Successful RB-PDAT (avoidance of therapeutic keratoplasty), share of cases", "setting": "[3]; 0.1 or 0.2% RB on de-epithelized corneas 30 minutes, then 5.4 J/cm^2 green LED light 15 minutes, 18 patients unresponsive to standard therapy", "result": 72, "unit": "%"},
      {"measurement": "average time to clinical resolution after RB-PDAT", "setting": "[3]; 0.1 or 0.2% RB, 5.4 J/cm^2 green LED light", "result": "46.9 ± 26.4", "unit": "days"},
      {"measurement": "MIC", "setting": "[4]", "result": 50, "unit": "µg/mL"},
      {"measurement": "MIC", "setting": "[5]", "result": 50, "unit": "µg/mL"},
      {"measurement": "MIC", "setting": "[6]", "result": 50, "unit": "µg/mL"},
      {"measurement": "viable bacteria in biofilm", "setting": "[7]; RB 50.0 μg/mL (2×MIC under dark)", "result": "significantly reduced the number of viable bacteria"},
      {"measurement": "viable bacteria in biofilm", "setting": "[7]; RB 1,000 μg/mL", "result": "No viable bacteria"},
      {"measurement": "biofilm eradication, log reduction", "setting": "[7]; under the fluorescent light, RB 30.0 μg/mL (38×MIC)", "result": 7, "unit": "log reduction"},
      {"measurement": "MIC", "setting": "[8]", "result": 50, "unit": "µg/mL"},
      {"measurement": "Day 3 Growth Inhibition Percentage, RB + 518 nm Irradiation", "setting": "F. solani; 518 nm, 5.4 J/cm^2", "result": "78.2 ± 2.1", "unit": "Percentage"},
      {"measurement": "Day 3 Growth Inhibition Percentage, RB Only", "setting": "F. solani; dark, no irradiation", "result": "7.3 ± 1.1", "unit": "Percentage"},
      {"measurement": "MIC", "setting": "[9]", "result": 25, "unit": "µg/mL"},
      {"measurement": "concentration at which all vancomycin-resistant strains were killed", "setting": "[10]", "result": "below 1.0 μg/mL"},
      {"measurement": "MIC", "setting": "[11]", "result": 50, "unit": "µg/mL"},
      {"measurement": "MIC", "setting": "[12]; Streptococcus pneumoniae, Table 1 entry 24, broth dilution, dark, 24 h", "result": "> 100", "unit": "µg/mL"},
      {"measurement": "susceptibility to RB", "setting": "[12]; entry 24", "result": "showed resistance"},
      {"measurement": "MIC", "setting": "[13]", "result": 50, "unit": "µg/mL"},
      {"measurement": "MIC", "setting": "[14]", "result": 50, "unit": "µg/mL"},
      {"measurement": "MIC", "setting": "[15]", "result": 50, "unit": "µg/mL"},
      {"measurement": "MIC", "setting": "[16]; Streptococcus salivarius, Table 1 entry 23, broth dilution, dark, 24 h", "result": 25, "unit": "µg/mL"},
      {"measurement": "susceptibility to RB", "setting": "[16]; entry 23", "result": "susceptible"},
      {"measurement": "MIC", "setting": "[17]", "result": 25, "unit": "µg/mL"},
      {"measurement": "safety of RB under natural and artificial lights", "setting": "[18]", "result": "considered to be safe"},
      {"measurement": "MIC", "setting": "[19]", "result": 50, "unit": "µg/mL"},
      {"measurement": "MIC", "setting": "[20]", "result": 25, "unit": "µg/mL"},
      {"measurement": "MIC", "setting": "[21]; Staphylococcus epidermidis, Table 1 entry 16, broth dilution, dark, 24 h", "result": 25, "unit": "µg/mL"},
      {"measurement": "killing by RB", "setting": "[21]; aerobic condition, entry 16", "result": "effectively killed"},
      {"measurement": "MIC", "setting": "[22]", "result": 25, "unit": "µg/mL"},
      {"measurement": "MIC", "setting": "[23]", "result": 25, "unit": "µg/mL"},
      {"measurement": "MIC", "setting": "[24]", "result": 125, "unit": "µg/mL"},
      {"measurement": "MIC", "setting": "[25]; Mycobacterium, Table 1 entry 25, broth dilution, dark, 24 h, read-out: MIC", "result": 25, "unit": "µg/mL"},
      {"measurement": "MIC", "setting": "[25]; dark condition, triplicated, read-out: MIC (μg/mL) against M. smegmatis 607 ™ (wild-type)", "result": 12.5, "unit": "µg/mL"}
    ]}
  ]
}
